Assay results from patent publication US11485700B2, “Synthesis of (+)-cannabinoids and their therapeutic effects” (SYMRISE AG, priority 2018, dated 2022).
Where two headings read alike, the source gives them in different places.

Key:
[1] = molecular target: CB1 receptor (Homo sapiens (Human), UniProt P21554); assay: In vitro binding to CB1 receptor, [3H]-CP55940 radioligand displacement; settings: for CB1/CB2 selectivity: ratio of CB1-Ki to CB2-Ki
Procedure: (§1) Compounds with an expected profile as CB1 and/or CB2 receptor ligands were evaluated by competition studies that allow determining the affinity of these compounds (Ki values) for both receptors against a classical cannabinoid ligand. The competition studies were conducted with membranes transfected with either CB1 or CB2 receptors. For stock solutions the compounds were dissolved at concentrations of 50 and 100 mM and stored at −20° C.
(§2) 96-well plates and the tubes necessary for the experiment were siliconized with Sigmacote (Sigma). Membranes were resuspended in the corresponding buffer and were incubated with the radioligand and each compound for 90 min at 30° C. Non-specific binding was determined with 10 μM WIN55212-2 and 100% binding of the radioligand to the membrane was determined by its incubation with membrane and without any compound. Filtration was performed by a Harvester®filtermate (Perkin-Elmer) with Filtermat A GF/C filters pretreated with polyethylenimine 0.05%. After filtering, the filter was washed nine times with binding buffer, dried and a melt-on scintillation sheet (Meltilex™ A, Perkin Elmer) was melted onto it. Then, radioactivity was quantified by a liquid scintillation spectrophotometer (Wallac MicroBeta Trilux, Perkin-Elmer).
(§3) Radioligand displacement assays were used to evaluate the affinity of the new compounds using membranes from cells (HEK293EBNA) transfected with the CB1 or the CB2 receptors and [^3H]-CP55940 as radioligand. The evaluation of the compounds was conducted in two phases. The first phase consisted in a simple screening with a unique and high concentration of each compound (40 μM). The data was collected from at least three experiments performed in triplicate. […] This consisted of a competition study with [^3H]CP55940 (0.10 nM for CB1 and 0.15 nM for CB2) and different concentrations of the selected compounds (10^−4-10^−11M). The data was analyzed, by using GraphPad Prism® version 5.01 (GraphPad Software Inc., San Diego, Calif., USA), for the calculation of Ki values expressed as mean±SEM of at least three experiments performed in triplicate for each point.

[2] = tested on: IL-1-treated human dermal fibroblasts; assay: IL-1-induced inflammatory parameters in human dermal fibroblasts; format: cell-based; settings: IL-1beta 10 U/ml, 24 h; for inhibition of IL-1-induced PGE2 / inhibition of IL-1-stimulated IL-6 release / inhibition of IL-1-stimulated IL-8 release: maximal effect, doses up to 25 μM
Procedure: (§4) Cell cultures: Human primary monocytes were extracted from the whole blood of medically healthy volunteers, who provided written informed consent at the local blood bank (University Hospital of Freiburg, Germany), following a standardized protocol (gradient preparation, Lymphocytes separation medium, PAN Biotech, P04-60125, Aidenbach, Germany) using completely endotoxin-free cultivation. Using 50 ml tubes, 25 ml Pancoll was loaded with 25 ml of blood (buffy coats). The gradient was established by centrifugation at 1800 rpm, 20° C. for 40 min with slow acceleration and deceleration. Peripheral blood mononuclear cells in the interphase were carefully removed and re-suspended in 50 ml pre-warmed phosphate-buffered saline (PBS) (Pan Biotech, P04-36500), followed by centrifugation for 10 min at 1600 rpm and 20° C. The supernatant was discarded and the pellet washed in 50 ml PBS and centrifuged as described above. The pellet was then re-suspended in 50 ml RPMI-1640 low-endotoxin medium supplemented with 10% human serum (Hexcell, Berlin, Germany, SP2080). After counting the number of cells in a particle counter (Euro Diagnostics, Krefeld, Germany), cells were seeded in 24-well plates for enzyme linked immunosorbent assay (ELISA) (2.2 mio. cells/well) or 96-well plates at a density of 2×10^4 cells/well for cell viability testing, and incubated at 37° C. with 5% CO2. The medium and the non-adherent cells (lymphocytes) were removed and fresh RPMI-1640 medium containing 1% human serum added. Enriched monocytes were then ready to be used for the experiments. Primary human fibroblasts and HaCat keratinocytes were obtained from the Uniklinik Freiburg. All cells were maintained in supplemented DMEM (Invitrogen, Life-Technologies, Darmstadt, Germany) medium containing 10% FBS (Bio&Sell, Feucht, Germany) and 1% antibiotics penicillin/streptomycin (from Invitrogen, DMEM complete medium) at 37° C. in a humidified atmosphere of 5% CO2.
Determination of inflammatory molecules in fibroblasts: Primary human fibroblasts were cultivated as described above and seeded (500000 cells/well) in 24-well plates. Cells were incubated with IL-1beta (Roche, Mannheim, Germany, 10 U/ml) in absence and presence of the cannabinoids (5 doses, n=3) for 24 h. Unstimulated cells served as a negative control. 24 h after cell stimulation, supernatants were removed, centrifuged and investigated for IL-6, PGE2, and IL-8 concentrations by ELISAs according to the manufacturer's protocol (PGE2 from Cayman/Biomol, Hamburg, Germany; IL-6, and IL-8 from Immuno-tools, Frisoythe, Germany). The respective extinction is determined using a 96-well plate reader (Berthold, Offenburg, Germany).

[3] = molecular target: T1, CB2 receptor (Homo sapiens (Human), UniProt P34972); assay: In vitro binding to CB2 receptor, [3H]-CP55940 radioligand displacement
Procedure: as §1, §2, §3

[4] = tested on: PolyIC-treated human keratinocytes (HaCat); assay: Poly I:C-induced proteases in human HaCat keratinocytes; format: cell-based; settings: Poly I:C 10 μg/ml, 24 h; for inhibition at 25 µM: Homo sapiens, HaCaT; for inhibition of Poly I:C-stimulated TIMP1: maximal effect, doses up to 25 μM
Procedure: as §4
Determination of MMPs and TIMPs in keratinocytes: Keratinocytes (HaCat) were cultivated as described above. Cells were seeded in 24-well plates incubated with Poly I:C (InvivoGen, San Diego, Calif.; USA, 10 μg/ml) in absence and presence of the cannabinoids (5 doses, n=3) for 24 h. Unstimulated cells served as a negative control. 24 h after cell stimulation, supernatants were removed, centrifuged and investigated for MMP1, MMP9 and TIMP1 concentrations by ELISAs according to the manufacturer's protocol (from Biotechne, Wiesbaden, Germany). The respective extinction was determined using a 96-well plate reader (Berthold, Offenburg, Germany).

[5] = tested on: LPS-treated human monocytes; assay: LPS-induced inflammatory parameters in human monocytes; format: cell-based; settings: for inhibition at 25 µM: Homo sapiens, Monocyte, maximal effect at 25 μM; for inhibition of LPS-stimulated TNFalpha release / inhibition of LPS-induced IL-6: maximal effect, doses up to 25 μM
Procedure: as §4
Measurement of cytokines and PGE2 in primary human monocytes: Cells were incubated with LPS (Sigma-Aldrich, Taufkirchen, Germany, 10 ng/ml) for 24 h. The cannabinoids (5 doses) were added 30 min before LPS treatment. After 24 h, supernatants were removed, centrifuged and investigated for IL-1beta, IL-8, IL-6, TNFalpha, MMP9, isoprostane, and PGE2 concentrations in EIAs (PGE2 and isoprostane, from Cayman/Biomol, Hamburg, Germany) or ELISAs (IL-1beta, Hiss, Freiburg, Germany; TNFalpha, IL-6 and IL-8, ImmunoTools, Frysoithe, Germany, MMP9, Biotechne, Wiesbaden, Germany) using manufacturer's protocol. The respective extinction was determined using a 96-well plate reader (Berthold, Offenburg, Germany). Each dose was analyzed 4 times in two buffy coats from 2 different donors (2 buffy coats used from 2 different healthy blood donors with final n=4 values).

[6] = tested on: primary human monocytes; assay: Cell viability in human monocytes (Alamar Blue); format: cell-based; settings: 24 h
Procedure: Cell cultures: Human primary monocytes were extracted from the whole blood of medically healthy volunteers, who provided written informed consent at the local blood bank (University Hospital of Freiburg, Germany), following a standardized protocol (gradient preparation, Lymphocytes separation medium, PAN Biotech, P04-60125, Aidenbach, Germany) using completely endotoxin-free cultivation. Using 50 ml tubes, 25 ml Pancoll was loaded with 25 ml of blood (buffy coats). The gradient was established by centrifugation at 1800 rpm, 20° C. for 40 min with slow acceleration and deceleration. Peripheral blood mononuclear cells in the interphase were carefully removed and re-suspended in 50 ml pre-warmed phosphate-buffered saline (PBS) (Pan Biotech, P04-36500), followed by centrifugation for 10 min at 1600 rpm and 20° C. The supernatant was discarded and the pellet washed in 50 ml PBS and centrifuged as described above. […] Enriched monocytes were then ready to be used for the experiments. […]
Cell viability: Cells were incubated with the cannabinoids (3 doses, n=4) for 24 h. Cytotoxicity was analyzed by Alamar Blue staining (formazan). […] The plate was then incubated at 37° C. for 2 h in a humidified 5% CO2 atmosphere, and the color reaction determined using a 96-well plate reader (Berthold, Offenburg, Germany, excitation 544 nm, emission 590 nm). […]

[7] = tested on: IL-1-treated human dermal fibroblasts; assay: IL-1-induced inflammatory parameters in human dermal fibroblasts; format: cell-based; settings: 24 h
[8] = molecular target: T1, CB2 receptor; assay: CB2 antagonistic activity, CRE-Luc assay in HEK 293T-CB2 cells; format: cell-based; settings: WIN 55,212-2 repression of forskolin-induced CRE-Luc
Procedure: HEK 293T-CB1 and HEK 293T-CB2 cells (stably transfected with CB1 and CB2 cDNAs) (10^5/ml) were incubated in 24-well plates and transiently transfected with 0.5 μg/ml of the plasmid CRE-Luc that contains six consensus cAMP responsive elements (CRE) linked to firefly luciferase. Transient transfections were performed with Rotifect (Carl Roth GmbH, Karlsruhe, Germany) according to the manufacturer's instructions and harvested 24 h after transfection.
For CB2 antagonistic activity in cells the potential repression of Forskolin-induced CRE-luc inhibition induced by the compounds was analyzed.
After six hours of stimulation the cells were lysed (in 25 mM Tris-phosphate pH 7.8, 8 mM MgCl2, 1 mM DTT, 1% Triton X-100, and 7% glycerol) and luciferase activity was measured using an Autolumat LB 9501 (Berthold Technologies, Bad Wildbad, Germany) following the instructions of the luciferase assay kit (Promega, Madison, Wis.). The background obtained with the lysis buffer was subtracted in each experimental value, and the specific transactivation expressed as fold induction over basal levels (CRE-Luc).
The potential antagonistic activities of the compounds on the CB2 receptor were studied in the following. […] The negative control (untreated cells, 0% activation) is not listed.

[9] = read-out: inhibition of Poly I:C-induced MMP1
[10] = read-out: inhibition of Poly I:C-stimulated MMP9
[11] = LPS 10 ng/ml, 24 h, read-out: inhibition of LPS-stimulated PGE2 release

SMILES	Ki [1]	CB1/CB2 selectivity [1]	doses inhibiting IL-1-induced PGE2 [2]	doses inhibiting IL-1-stimulated IL-6 release [2]	doses inhibiting IL-1-stimulated IL-8 release [2]	inhibition of IL-1-induced PGE2 [2]	inhibition of IL-1-stimulated IL-6 release [2]	inhibition of IL-1-stimulated IL-8 release [2]	Ki [3]	inhibition at 25 µM [4, 9]	inhibition at 25 µM [4, 10]	inhibition of Poly I:C-stimulated TIMP1 [4]	doses increasing LPS-mediated IL-1beta ([5]; LPS 10 ng/ml, 24 h)	doses inhibiting LPS-induced IL-6 ([5]; LPS 10 ng/ml, 24 h)	doses inhibiting LPS-induced IL-8 ([5]; LPS 10 ng/ml, 24 h)	doses affecting cell viability [6]	inhibition at 25 µM [5, 11]	doses inhibiting LPS-stimulated PGE2 release ([5]; LPS 10 ng/ml, 24 h)	doses inhibiting LPS-stimulated TNFalpha release ([5]; LPS 10 ng/ml, 24 h)	inhibition of LPS-stimulated TNFalpha release ([5]; LPS 10 ng/ml, 24 h)	other results
C=C(C)[C@H]1CCC(C)=C[C@@H]1c1c(O)cc(CCCCC)c(C(=O)OCC(O)CCC)c1O (single isomer, unassigned; (+)) [(+)-CBD-HPE, (+)-Cannabidiol hydroxypentylester]	3.1 nM	3.9	25 µM	≥ 10 µM	≥ 10 µM	50%	95%	95%	0.8 nM	20%	40%	60%	25 µM	≥ 10 µM	25 µM						doses inhibiting LPS-stimulated MMP9 ([5]; LPS 10 ng/ml, 24 h): 25 µM
C=C(C)[C@H]1CCC(C)=C[C@@H]1c1c(O)cc(CCCCC)cc1O [(+)-CBD, (+)-Cannabidiol]				≥ 0.1 µM	≥ 0.1 µM	more than 80%	more than 90%	more than 90%		~40%	~40%	~70%			25 µM	≥ 25 µM	~80%	≥ 1 µM	≥ 0.1 µM	around 80%	doses inhibiting Poly I:C-induced MMP1 [4]: 25 µM; doses inhibiting Poly I:C-stimulated MMP9 [4]: ≥ 5 µM; doses inhibiting Poly I:C-stimulated TIMP1 [4]: ≥ 5 µM
C=C(C)[C@H]1CCC(C)=C[C@@H]1c1c(O)cc(CCCCC)c(C(=O)OCCO)c1O [(+)-CBD-GE, (+)-Cannabidiol glycolester]			≥ 5 µM	≥ 5 µM	≥ 5 µM	approx. 80%	around 95%	around 95%	12.9 nM		30 to 50%	30-50%		≥ 0.1 µM			~80%	≥ 0.1 µM	≥ 0.1 µM	approx. 40%	inhibition at 25 µM ([5]; LPS 10 ng/ml, 24 h, read-out: inhibition of LPS-stimulated IL-1 release): ~40%; inhibition at 25 µM ([5]; LPS 10 ng/ml, 24 h, read-out: inhibition of LPS-stimulated isoprostane release): ~40%; doses inhibiting LPS-stimulated IL-1 release ([5]; LPS 10 ng/ml, 24 h): ≥ 0.1 µM; doses inhibiting LPS-stimulated isoprostane release ([5]; LPS 10 ng/ml, 24 h): ≥ 0.1 µM; inhibition of LPS-induced IL-6 ([5]; LPS 10 ng/ml, 24 h): around 80%; enhancement of LPS-mediated MMP9, more than LPS values ([5]; doses of 5-25 μM): 20-60%
C=C(C)[C@H]1CCC(C)=C[C@@H]1c1c(O)cc(CCCCC)c(C(=O)OC)c1O [(+)-CBD-ME, (+)-Cannabidiol methylester]	345 nM	12.3							28 nM			40%	25 µM							around 20%	dose that seems to be toxic in fibroblasts [7]: 25 µM; doses increasing LPS-induced IL-8 ([5]; LPS 10 ng/ml, 24 h): 5 to 25 µM; inhibition of LPS-induced IL-6 ([5]; LPS 10 ng/ml, 24 h): around 20%
C=C(C)[C@H]1CCC(C)=C[C@@H]1c1c(O)cc(CCC)cc1O [(+)-CBDV, (+)-Cannabidivarin]				≥ 5 µM	≥ 5 µM	more than 80%			33.1 nM							≥ 25 µM					doses enhancing Poly I:C-stimulated MMP1 [4]: 25 µM
COc1ccc(C(=O)c2c(C)n(CCN3CCOCC3)c3cc(I)ccc23)cc1 [AM630]																					CB2 antagonistic activity [8]: prevented
